From US9238644B2, “VEGFR3 inhibitors” (CANCER THERAPEUTICS CRC PTY LIMITED, priority 2012, dated 2016)

Tests used:
VEGFR3 = VEGFR3 (Homo sapiens (Human), UniProt P35916); assay: VEGFR3 Phospho ELISA assay; type: cell-based; conditions: HMVEC-dLyAD cells, treated 1 hour, VEGFC stimulated; phospho VEGFR3 relative to Total VEGFR3
Protocol: Adult human dermal lymphatic microvascular endothelial cells (HMVEC-dLyAD) (Cat# CC-2810, Lonza) were seeded into clear-bottom, TC treated 12 well plates (Cat #665180, Greiner Bio-One) in EGM-2MV (Cat# CC-3202, Lonza) at 180,000 cells/well (volume 1 mL), and the plates incubated at 37° C. and 5% CO2 for 6 hours.
96 well Maxisorp immuno plates (Cat #439454, Nunc) were coated with 100 μL of Total VEGFR3 capture antibody (Part #841888, Human Total VEGFR3/FLT4 ELISA Kit, Cat # DYC3491, R&D Systems), or Phospho VEGFR3 Capture antibody (Part #841885, Human Phospho VEGFR3/FLT4 ELISA Kit, Cat# DYC2724, R&D Systems). The plates were covered and incubated at room temperature overnight.
The coating antibody was flicked out and the plates washed three times with Wash Buffer (Phosphate buffered saline (137 mM NaCl, 2.7 nM KCl, 8.1 nM Na2HPO4, 1.5 mL KH2PO4, pH 7.2-7.4), 0.05% Tween 20). 300 μL of blocking buffer (5% v/v Tween 20, 5% w/v sucrose in PBS) was then added to wells and plate incubated for 2 hours at room temperature. Blocking solution is flicked out and plates washed three times and tapped dry.
Compound dilution series were prepared in EBM-2 (Cat # CC-3156, Lonza)+0.1% BSA (Cat# A8412, Sigma) with constant 0.1% DMSO concentration. […]
Total VEGFR3 levels were quantified using a Multiskan Ascent plate reader and Ascent software fitted with 450 nm filter. […]

VEGFR2 = VEGFR2 (Homo sapiens (Human), UniProt P35968); assay: VEGFR2 Phospho ELISA assay; conditions: HUVEC, treated 1 hour, VEGF stimulated; phospho VEGFR2 relative to Total VEGFR2
Sequence of VEGFR2 (P35968 20-1356): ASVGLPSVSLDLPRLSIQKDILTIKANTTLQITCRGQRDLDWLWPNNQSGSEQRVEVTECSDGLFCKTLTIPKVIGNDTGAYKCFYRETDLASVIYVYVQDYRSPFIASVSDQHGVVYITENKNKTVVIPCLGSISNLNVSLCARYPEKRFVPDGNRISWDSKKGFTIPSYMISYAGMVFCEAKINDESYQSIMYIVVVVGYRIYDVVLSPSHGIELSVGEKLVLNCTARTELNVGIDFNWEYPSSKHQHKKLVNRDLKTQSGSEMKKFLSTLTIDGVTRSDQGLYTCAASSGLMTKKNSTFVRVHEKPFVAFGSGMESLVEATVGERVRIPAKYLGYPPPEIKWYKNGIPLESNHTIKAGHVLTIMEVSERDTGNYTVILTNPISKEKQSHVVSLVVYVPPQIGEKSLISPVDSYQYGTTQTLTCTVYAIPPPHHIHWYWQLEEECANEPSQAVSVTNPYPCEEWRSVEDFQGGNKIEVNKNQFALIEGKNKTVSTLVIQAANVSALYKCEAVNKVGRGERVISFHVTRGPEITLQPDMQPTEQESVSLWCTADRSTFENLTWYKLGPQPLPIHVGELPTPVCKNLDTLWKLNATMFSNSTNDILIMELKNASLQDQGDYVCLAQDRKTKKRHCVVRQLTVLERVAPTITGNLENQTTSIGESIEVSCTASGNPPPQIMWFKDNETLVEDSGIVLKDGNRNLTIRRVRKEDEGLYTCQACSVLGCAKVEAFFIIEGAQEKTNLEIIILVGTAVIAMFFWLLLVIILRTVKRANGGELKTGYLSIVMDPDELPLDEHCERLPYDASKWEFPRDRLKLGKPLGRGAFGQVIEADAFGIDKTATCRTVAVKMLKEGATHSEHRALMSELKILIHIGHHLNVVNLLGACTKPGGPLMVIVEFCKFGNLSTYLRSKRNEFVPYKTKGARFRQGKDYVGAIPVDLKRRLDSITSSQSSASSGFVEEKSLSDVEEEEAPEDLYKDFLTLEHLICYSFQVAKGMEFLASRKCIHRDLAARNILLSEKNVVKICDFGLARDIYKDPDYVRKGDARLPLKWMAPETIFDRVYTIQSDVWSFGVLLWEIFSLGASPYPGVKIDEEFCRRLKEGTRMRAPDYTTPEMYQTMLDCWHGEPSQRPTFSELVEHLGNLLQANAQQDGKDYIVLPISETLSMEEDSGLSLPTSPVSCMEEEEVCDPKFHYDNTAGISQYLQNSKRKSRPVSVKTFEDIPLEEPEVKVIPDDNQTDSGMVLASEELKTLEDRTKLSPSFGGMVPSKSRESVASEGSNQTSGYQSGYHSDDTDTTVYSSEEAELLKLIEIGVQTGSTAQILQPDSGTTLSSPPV

[1] = molecular target: VEGFR3 cytoplasmic domain (Homo sapiens, UniProt P35916); assay: VEGFR3 Biochemical assay (AlphaScreen); conditions: N-terminal GST-fusion enzyme, 500 μM ATP, 90 minutes at 30 degree Celsius (modified form: Hexa-His-fusion, 1 μM ATP)
Sequence of VEGFR3 cytoplasmic domain (P35916 25-1363 limits assumed): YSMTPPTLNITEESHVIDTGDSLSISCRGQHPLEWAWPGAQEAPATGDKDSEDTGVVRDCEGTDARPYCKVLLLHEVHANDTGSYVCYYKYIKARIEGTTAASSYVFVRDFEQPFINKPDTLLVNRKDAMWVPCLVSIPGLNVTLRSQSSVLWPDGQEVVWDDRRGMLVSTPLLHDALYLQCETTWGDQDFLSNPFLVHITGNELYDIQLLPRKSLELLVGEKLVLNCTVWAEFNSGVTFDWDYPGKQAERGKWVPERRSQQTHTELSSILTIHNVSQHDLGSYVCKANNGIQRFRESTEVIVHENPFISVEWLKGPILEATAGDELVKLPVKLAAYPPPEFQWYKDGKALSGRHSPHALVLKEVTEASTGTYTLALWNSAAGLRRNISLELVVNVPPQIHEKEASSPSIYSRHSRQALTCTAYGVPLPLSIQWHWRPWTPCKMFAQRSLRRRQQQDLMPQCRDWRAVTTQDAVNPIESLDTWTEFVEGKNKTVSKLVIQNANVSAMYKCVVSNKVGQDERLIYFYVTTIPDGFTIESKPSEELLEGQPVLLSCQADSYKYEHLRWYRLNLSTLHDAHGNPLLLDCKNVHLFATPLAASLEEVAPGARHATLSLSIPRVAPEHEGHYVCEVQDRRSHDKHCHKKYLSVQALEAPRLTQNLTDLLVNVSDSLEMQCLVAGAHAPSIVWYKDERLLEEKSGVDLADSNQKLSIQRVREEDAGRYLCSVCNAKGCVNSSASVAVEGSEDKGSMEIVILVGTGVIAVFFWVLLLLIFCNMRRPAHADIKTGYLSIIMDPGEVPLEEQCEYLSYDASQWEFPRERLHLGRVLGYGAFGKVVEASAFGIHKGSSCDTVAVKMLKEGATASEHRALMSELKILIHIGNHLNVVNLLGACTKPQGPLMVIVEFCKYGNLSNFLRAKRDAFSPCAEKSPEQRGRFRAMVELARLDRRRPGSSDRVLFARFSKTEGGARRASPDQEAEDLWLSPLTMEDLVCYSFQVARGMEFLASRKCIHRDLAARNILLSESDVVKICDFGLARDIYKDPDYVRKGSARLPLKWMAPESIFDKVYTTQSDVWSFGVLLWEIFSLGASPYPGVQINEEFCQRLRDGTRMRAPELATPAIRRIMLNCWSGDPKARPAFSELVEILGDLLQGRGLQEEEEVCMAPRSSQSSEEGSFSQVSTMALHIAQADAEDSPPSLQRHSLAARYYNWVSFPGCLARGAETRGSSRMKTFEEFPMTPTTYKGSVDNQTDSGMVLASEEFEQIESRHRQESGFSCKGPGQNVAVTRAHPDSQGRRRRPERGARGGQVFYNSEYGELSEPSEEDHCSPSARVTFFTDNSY

Sequence of VEGFR3 (P35916 25-1363): as the sequence (P35916 25-1363 limits assumed) above

Row | SMILES | IC50 (VEGFR3) [µM] | IC50 (VEGFR2) [µM] | IC50 [1] [µM]
1 | CCC(C(N)=O)c1ccccc1CCc1nc(Nc2ccc(C3CCNCC3)cc2)ncc1C(F)(F)F (racemic) [Compound 1, 2-(2-(2-(2-((4-(piperidin-4-yl)phenyl)amino)-5-(trifluoromethyl)pyrimidin-4-yl)ethyl)phenyl)butanamide] | 0.173 | > 10 | 0.091
2 | CC(C(N)=O)c1ccccc1CCc1nc(Nc2cnn(C3CCNCC3)c2)ncc1C(F)(F)F (racemic) [Compound 56, 2-(2-(2-(2-((1-(piperidin-4-yl)-1H-pyrazol-4-yl)amino)-5-(trifluoromethyl)pyrimidin-4-yl)ethyl)phenyl)propanamide] |  | 2.22 | 
3 | CC(C(N)=O)c1ccccc1CCc1nc(Nc2cnn(C3CCN(C)CC3)c2)ncc1C(F)(F)F (single isomer, unassigned) [Compound 57-2A, 2-(2-(2-(2-((1-(1-Methylpiperidin-4-yl)-1H-pyrazol-4-yl)amino)-5-(trifluoromethyl)pyrimidin-4-yl)ethyl)phenyl)propanamide] |  | 0.382 | 
4 | NC(=O)C1(c2ccccc2CCc2nc(Nc3ccc(C(F)(F)F)nc3)ncc2C(F)(F)F)CC1 [Compound 10] |  |  | 0.092
